According to patent publication US20240287134A1, “PEPTIDES FOR USE AS SENOTHERAPEUTIC AGENTS” (FUNDACIÓN PROFESOR NOVOA SANTOS, priority 2019, published 2024):
Where a SMILES comes first, the peptide text is derived from it. Where no end group is shown, it is not given here. The star is where a group is joined. X1 = CN(C)c1ccc2c(c1)Oc1cc(N(C)C)ccc1C21OC(=O)c2ccc(C(=O)*)cc21; TMR = fluorophore attached at the N-terminus

Tests used:
Format in all cases: cell-based, human
[1] = system: primary chondrocytes from articular cartilage of patients with OA; test: MTT cell viability assay to study toxicity; conditions: 1-10-60-600 μM, 16 hours, with respect to untreated cells
Method: FIG. 2. Cell viability assay to study toxicity. A MTT viability assay was carried out in primary chondrocytes from articular cartilage of patients with OA treated with increasing concentrations of the peptide 8Arg-YSA1 (1-10-60-600 μM, with the octaarginine sequence and the TMR), for 16 hours.
An initial number of cells (5,000-10,000) were seeded in a 96-well culture plate and treated with different concentrations of the peptides. After the treatment, the medium was removed from each well and 10 μL of the MTT reagent was added to 100 μL of fresh medium and incubated at 37° C. for 4 hours. To solubilize the formazan crystals of the MTT reagent, it was incubated with DMSO at room temperature and under stirring for 30 minutes. Absorbance was measured at 570 nm in a plate reader (Nanoquant Infinite M200, TECAN).
Such as it is explained in FIG. 2, a MTT viability assay was carried out on primary chondrocytes from articular cartilage of patients with OA treated with increasing concentrations of the peptide 8Arg-YSA1 (1-10-60-600 μM, with the arginine sequence and the TMR), for 16 hours.

[2] = system: Cx43 in OA chondrocytes; test: Western-blot of Cx43 levels; conditions: 16 hours, vs untreated (UT)
Excerpt: (§1) FIG. 4. Decrease in Cx43 levels in chondrocytes from patients with OA treated with peptides YSA1, YTP1 and TUB1. […] The decrease in the levels and activity of Cx43 activates the re-differentiation of the chondrocyte and decreases the accumulation of senescent cells, restoring the adult chondrocyte phenotype and tissue regeneration capacity. […] The results obtained were confirmed by western-blot using α-tubulin as loading control. […] (d) Chondrocytes isolated from donors with osteoarthritis were treated for 16 hours with the YTP1 peptide (150 μM) and the Cx43 levels were analysed by western blot, using α-tubulin as loading control. […] (e) Chondrocytes isolated from donors with OA were treated for 16 hours with the 8Arg-YSA1 peptide (5 μM) and the Cx43 levels were analysed by western blot, using α-tubulin as loading control. […] (g) Chondrocytes isolated from donors with OA were treated for 16 hours with the TUB1 peptide (5 μM) and the Cx43 levels were analysed by western blot, using the intensity of the Ponceau stain as loading control.
The cell pellet isolated from patients with OA and treated with the peptides or untreated were mechanically and chemically lysed using a needle of 29 gauges (BD Medical) in the presence of a cold lysis buffer (50 mM Tris HCl pH 7.5; 50 mM EDTA pH 8, 0.5% NP-40, 1% Triton X-100, 150 mM NaCl). Once the cell extracts were obtained, they were diluted in loading buffer (10% SDS, 200 mM Tris HCl pH 6.8, 50% glycerol, 0.1% Bromophenol Blue, 10% […]). Equal amounts of the cell extracts were separated on a 10% Acrylamide/Bisacrylamide (Acr/Bis) gel with SDS. The proteins were subsequently transferred to a polyvinylidene fluoride membrane (PVDF, Merck) in a Trans-Blot® SD Semi-Dry Transfer Cell (Bio-Rad). It was verified that the transfer was correct by staining the membrane with ATX Ponceau S (Sigma-Aldrich). To block possible nonspecific binding with the membrane, 1-hour incubation was performed at room temperature with a 5% milk solution in a TTBS buffer (20 mM Tris, 150 mM NaCl, 0.05% Tween-20). […]

[3] = system: gap junctions (GJs) formed by Cx43 in OA chondrocytes; test: Scrape Loading/Dye Transfer (SL/DT) assay; conditions: 150 μM, 16 hours, vs untreated (UT)
Method: FIG. 5. Peptides YSA1 and YTP1 decrease intercellular communication through gap junctions (GJs) formed by Cx43 in OA chondrocytes. (a) Scrape Loading/Dye Transfer (SL/DT) assay in which the transfer of Lucifer Yellow (LY) fluorophore between contact chondrocytes through GJs is studied.
Cells were seeded in culture plates to an approximate 90% confluence. After treating the cells with the peptides, the medium was removed and washed twice with PBS. The fluorescent compound Lucifer Yellow (LY, Cell Projects Ltd © Kent) 0.4% in PBS was added and two cuts were made, one with a scalpel and the other with a needle on the cell monolayer. The cells were incubated for 5-7 minutes at 37° C. to allow the transfer of the LY between undamaged cells in contact, after which the LY was removed, and cells were washed with PBS. The cells were fixed with 4% formaldehyde for 10 minutes. The visualization was performed in an inverted fluorescence microscope (Inverted Research Microscope Eclipse Ti, Nikon).
A Scrape Loading/Dye Transfer (SL/DT) test was performed in which the transfer of Lucifer Yellow fluorophore (LY) between contact chondrocytes through GJs was studied.

[4] = system: Cx43 in OA chondrocytes; test: Immunofluorescence for the detection of Cx43; conditions: 200 μM, against untreated (UT) cells
Excerpt: as §1
Primary cultures of chondrocytes at a confluence of 70-80% were treated with mimetic peptides of Cx43, and fixed with 2-4% paraformaldehyde (PFA, Sigma-Aldrich) in phosphate buffered saline (PBS, MP Biomedicals) for 10 minutes at room temperature. […]

[5] = 150 μM, α-tubulin loading control

Molecule	cell viability (MTT) [1]	Cx43 levels (western blot) ([2]; 5 μM, Ponceau stain loading control)	Cx43 levels (western blot) [2, 5]	cell coupling through GJs (Lucifer Yellow transfer) [3]	positivity for Cx43 (immunofluorescence) [4]
CC(C)C[C@H](NC(=O)[C@H](C)NC(=O)CNC(=O)[C@H](CO)NC(=O)[C@@H](NC(=O)[C@H](C)NC(=O)[C@H](Cc1c[nH]cn1)NC(=O)[C@H](Cc1ccc(O)cc1)NC(=O)[C@@H]1CCCN1C(=O)[C@H](CC(=O)O)NC(=O)[C@H](CO)NC(=O)[C@H](CCCCN)NC(=O)CNC(=O)[C@H](CCCNC(=N)N)NC(=O)[C@H](CCCNC(=N)N)NC(=O)[C@H](CCCNC(=N)N)NC(=O)[C@H](CCCNC(=N)N)NC(=O)[C@H](CCCNC(=N)N)NC(=O)[C@H](CCCNC(=N)N)NC(=O)[C@H](CCCNC(=N)N)NC(=O)[C@H](CCCNC(=N)N)NC(=O)c1ccc2c(c1)C1(OC2=O)c2ccc(N(C)C)cc2Oc2cc(N(C)C)ccc21)[C@@H](C)O)C(=O)N[C@@H](CO)C(=O)N1CCC[C@H]1C(=O)N[C@@H](C)C(=O)N[C@@H](CCCCN)C(=O)N[C@@H](CC(=O)O)C(=O)O [8Arg-YSA1] (X1-RRRRRRRRGKSDPYHATSGALSPAKD-OH)	did not affect cell viability				
Nt-FKGVKDRVKGK-Ct ({TMR}-FKGVKDRVKGK) [TUB1, TMR-labelled]		reduced the Cx43 levels			
Nt-GKSDPYHATSGALSPAKD-Ct ({TMR}-GKSDPYHATSGALSPAKD) [YSA1, residues 242-259 of the C-terminal domain of Cx43; labelled at N-terminus with TMR fluorophore]			significantly reduced the levels of Cx43	decrease in cell coupling	decrease in positivity
Nt-GKSDPYHATTGPLSPAKD-Ct ({TMR}-GKSDPYHATTGPLSPAKD) [YTP1, TMR-labelled]			reduced the levels of Cx43	decreased cell coupling	decrease in positivity
